Experimental data as given in ChEMBL document CHEMBL1909514, “Imidazo[2,1-b]thiazole guanylhydrazones as RSK2 inhibitors” (Eur J Med Chem, 2011).
The source made the active and inactive calls. Unless noted, the rule behind the calls is not given here.

Experiments:
[1] = target: T1, Serine/threonine-protein kinase Chk1 (Homo sapiens, UniProt O14757)
T1 sequence (O14757 whole entry): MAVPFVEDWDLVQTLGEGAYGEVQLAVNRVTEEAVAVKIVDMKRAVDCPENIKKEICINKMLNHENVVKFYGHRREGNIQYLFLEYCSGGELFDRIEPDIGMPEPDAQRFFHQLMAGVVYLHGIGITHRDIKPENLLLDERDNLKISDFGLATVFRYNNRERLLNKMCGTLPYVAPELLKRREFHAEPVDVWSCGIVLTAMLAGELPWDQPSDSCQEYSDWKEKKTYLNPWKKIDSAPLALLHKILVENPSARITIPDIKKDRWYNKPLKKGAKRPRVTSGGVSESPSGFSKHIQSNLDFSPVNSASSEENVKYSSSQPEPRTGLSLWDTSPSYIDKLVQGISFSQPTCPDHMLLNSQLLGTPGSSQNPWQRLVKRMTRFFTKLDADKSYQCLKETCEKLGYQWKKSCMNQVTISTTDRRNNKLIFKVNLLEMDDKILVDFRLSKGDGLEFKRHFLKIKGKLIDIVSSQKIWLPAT
Description: Inhibition of CHK1 assessed as inhibition of substrate phosphorylation using fluorescent peptide substrate by microplate reader assay

[2] = test system: MCF7; experiment: Antiproliferative activity against human MCF7 cells assessed as reduction in cell viability after 48 hrs celltiter glo assay; type: functional, cell-based
[3] = test system: MCF-10A; experiment: Antiproliferative activity against human MCF10A cells assessed as reduction in cell viability after 48 hrs celltiter glo assay; type: cell-based
[4] = target: T2, Ribosomal protein S6 kinase alpha-3 (Homo sapiens, UniProt P51812)
Description: Inhibition of RSK2 assessed as inhibition of substrate phosphorylation using fluorescent peptide substrate by microplate reader assay

[5] = target: Serine/threonine-protein kinase Chk2 (Homo sapiens, UniProt O96017)
Description: Inhibition of CHK2 assessed as inhibition of substrate phosphorylation using fluorescent peptide substrate by microplate reader assay

[6] = target: T2, Ribosomal protein S6 kinase alpha-3; experiment: Inhibition of RSK2-mediated GSK3alpha Ser21 phosphorylation in TPA-induced human MCF7 cells at 10 nM pretreated for 30 mins by immunoblotting; type: cell-based
[7] = target: T2, Ribosomal protein S6 kinase alpha-3; experiment: Inhibition of RSK2-mediated GSK3-beta Ser9 phosphorylation in TPA-induced human MCF7 cells at 10 nM pretreated for 30 mins by immunoblotting; type: cell-based
[8] = target: T3, Aurora kinase A (Homo sapiens) (UniProt O14965); experiment: Inhibition of Aurora kinase A assessed as inhibition of substrate phosphorylation using fluorescent peptide substrate up to 100 uM by microplate reader assay
T3 sequence (whole entry): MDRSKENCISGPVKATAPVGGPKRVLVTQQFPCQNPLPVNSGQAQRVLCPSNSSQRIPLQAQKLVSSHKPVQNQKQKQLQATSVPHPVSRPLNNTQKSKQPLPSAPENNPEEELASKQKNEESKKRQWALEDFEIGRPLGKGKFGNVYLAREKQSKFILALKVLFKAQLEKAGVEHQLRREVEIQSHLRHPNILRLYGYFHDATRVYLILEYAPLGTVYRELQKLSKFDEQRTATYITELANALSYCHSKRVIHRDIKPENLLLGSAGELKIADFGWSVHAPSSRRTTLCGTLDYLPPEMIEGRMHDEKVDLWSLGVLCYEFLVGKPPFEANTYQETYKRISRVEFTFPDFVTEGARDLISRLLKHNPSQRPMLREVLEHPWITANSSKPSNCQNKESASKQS

Chain of Serine/threonine-protein kinase Chk2 (O96017 whole entry): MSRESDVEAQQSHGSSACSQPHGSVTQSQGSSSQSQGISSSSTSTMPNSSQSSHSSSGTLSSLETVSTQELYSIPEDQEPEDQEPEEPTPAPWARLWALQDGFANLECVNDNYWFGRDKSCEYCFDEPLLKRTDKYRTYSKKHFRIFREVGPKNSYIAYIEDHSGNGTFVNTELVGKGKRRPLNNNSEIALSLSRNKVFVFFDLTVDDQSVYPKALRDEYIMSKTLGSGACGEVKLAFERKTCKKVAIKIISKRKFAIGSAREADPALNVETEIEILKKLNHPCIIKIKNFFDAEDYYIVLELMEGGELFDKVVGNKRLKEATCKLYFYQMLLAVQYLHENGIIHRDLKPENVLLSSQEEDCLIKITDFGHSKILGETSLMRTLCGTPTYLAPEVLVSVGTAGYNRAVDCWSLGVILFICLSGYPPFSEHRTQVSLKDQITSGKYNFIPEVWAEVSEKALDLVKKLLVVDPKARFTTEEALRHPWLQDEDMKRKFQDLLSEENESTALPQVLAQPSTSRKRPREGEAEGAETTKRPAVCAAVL
T2 sequence (P51812 whole entry): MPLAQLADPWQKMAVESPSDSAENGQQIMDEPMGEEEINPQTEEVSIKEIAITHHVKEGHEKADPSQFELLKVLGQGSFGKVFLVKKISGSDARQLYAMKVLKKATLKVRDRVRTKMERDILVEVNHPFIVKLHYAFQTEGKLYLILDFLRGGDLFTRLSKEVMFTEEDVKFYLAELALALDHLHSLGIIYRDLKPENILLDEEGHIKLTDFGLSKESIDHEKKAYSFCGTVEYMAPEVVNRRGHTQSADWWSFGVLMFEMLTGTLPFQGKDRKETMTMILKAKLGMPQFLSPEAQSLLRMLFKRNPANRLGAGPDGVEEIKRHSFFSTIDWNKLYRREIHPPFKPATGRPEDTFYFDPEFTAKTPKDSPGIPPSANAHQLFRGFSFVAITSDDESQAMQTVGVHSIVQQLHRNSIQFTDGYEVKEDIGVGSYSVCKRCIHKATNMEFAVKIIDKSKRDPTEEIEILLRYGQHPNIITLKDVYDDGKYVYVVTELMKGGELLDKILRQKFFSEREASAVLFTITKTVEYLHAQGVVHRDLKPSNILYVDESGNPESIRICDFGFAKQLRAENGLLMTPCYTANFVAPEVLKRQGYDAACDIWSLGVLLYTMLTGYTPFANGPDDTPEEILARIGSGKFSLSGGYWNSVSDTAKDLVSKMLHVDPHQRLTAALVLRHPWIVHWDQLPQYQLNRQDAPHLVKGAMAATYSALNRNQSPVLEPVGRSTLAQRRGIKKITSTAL

Row | SMILES | IC50 [1] | IC50 [4] | IC50 [5] | inhibition [6] | inhibition [7] | inhibition [8] | Activity [2] | Activity [3]
1 | N=C(N)N/N=C/c1c(-c2ccc([N+](=O)[O-])cc2)nc2sc(Cl)cn12 | > 100 µM | 0.97 µM | 78.8 µM | 50% | 50% | 50% | – | –
2 | Cl.N=C(N)N/N=C/c1c(-c2ccc(Cl)c([N+](=O)[O-])c2)nc2sccn12 | > 100 µM | 3.13 µM | 81 µM | – | – | – | Active | Non-toxic
3 | Cl.N=C(N)N/N=C/c1c(-c2ccc(Cl)c([N+](=O)[O-])c2)nc2sc(Cl)cn12 | > 100 µM | 5.85 µM | 90 µM | – | – | – | Active | Non-toxic

Now from value to compound, other results behind:

Row | IC50 [1] | IC50 [4] | IC50 [5] | inhibition [6] | inhibition [7] | inhibition [8] | SMILES | Activity [2] | Activity [3]
4 | > 100 µM | 2.8 µM | 83 µM | – | – | – | Cc1cn2c(/C=N/NC(=N)N)c(-c3ccc([N+](=O)[O-])cc3)nc2s1.Cl | Active | Toxic
5 | > 100 µM | 2.15 µM | 56.5 µM | 50% | 50% | inactive | Cl.N=C(N)N/N=C\c1c(-c2ccc([N+](=O)[O-])cc2)nc2sc(F)cn12 | Active | Non-toxic
